The source of these data is ChEMBL document CHEMBL1201862, “PubChem BioAssay data set” (2004).

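Cells were grown in 96-well plates and exposed to each compound for 48 hours at five concentrations; endpoints were interpolated linearly between bracketing concentrations, or set to the highest concentration if not reached. GI50: concentration for 50% inhibition of growth.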 Calls of active or inactive are those of the source. No stated cut-off is given here; in the data, active = GI50 up to about 1.1 µM and inactive = higher. Where a SMILES comes first, the peptide text is derived from it. The star is where a group is joined. Boc = CC(C)(C)OC(=O)* Some results are limits rather than exact numbers.

Among the test systems are Hs-578T; RXF 393; HCC 2998; DU-145; MCF7; BT-549; NCI/ADR-RES; PC-3; A498; UO-31; K562; UACC-257; HOP-92; CAKI-1; CCRF-CEM; HCT-116; HCT-15; ACHN; SF-539; T47D.
Common to all, as to experiment: DTP human tumour cell line panel, 48 h

By GI50 is commonly meant the concentration that inhibits growth by half.

`Nc1cc(C(=O)O)nc(O)n1`: the GI50 in the test on Hs-578T, in the test with RXF 393, in the test on HCC 2998, in the test on DU-145, in the test on MCF7 and in the test on BT-549 was > 100 µM (inactive) each time. Besides, the GI50 in the test with NCI/ADR-RES, with PC-3, with A498, with UO-31, with K562 and with UACC-257 was > 100 µM (inactive) in each case. The GI50 with HOP-92 is > 100 µM (inactive); with CAKI-1, > 100 µM (inactive); with CCRF-CEM, > 100 µM (inactive); in the test with HCT-116 it was > 100 µM (inactive); in the test on HCT-15, greater than 100 µM; with ACHN, > 100 µM (inactive).
For the compound `S=C(c1c[nH]c2ccccc12)N1CCCCC1`, the GI50 in the test on SF-539 was > 100 µM (inactive); in the test with Hs-578T, > 100 µM (inactive); in the test on RXF 393 it was 62.5 µM (inactive); with DU-145, > 100 µM (inactive); in the test with MCF7, 84.1 µM (inactive); in the test with BT-549 it was 92.9 µM (inactive). Besides, the GI50 was 66.5 µM (inactive) with NCI/ADR-RES; 49.8 µM (inactive) in the test on PC-3; > 100 µM (inactive) with A498; 72.4 µM (inactive) with K562; > 100 µM (inactive) in the test on UACC-257; > 100 µM (inactive) in the test on CAKI-1. Also, the GI50 was 89.9 µM (inactive) in the test with CCRF-CEM, 95.1 µM (inactive) in the test on HCT-116, 82.2 µM with HCT-15 and > 100 µM (inactive) with ACHN.
With `C/C(Cc1ccc2c(c1)OCO2)=N\NC(=O)C(C)Sc1nnc(SC(C)C(=O)N/N=C(\C)Cc2ccc3c(c2)OCO3)s1` (configuration not stated), the GI50 in the test on Hs-578T is > 100 µM (inactive); in the test with RXF 393 it was > 100 µM (inactive); in the test on HCC 2998, > 100 µM (inactive); in the test on DU-145, > 100 µM (inactive); in the test on MCF7, 24.1 µM (inactive); in the test with BT-549, > 100 µM (inactive). For the same compound, the GI50 with NCI/ADR-RES is > 100 µM (inactive); with PC-3, > 100 µM (inactive); in the test with A498 it was 62.4 µM (inactive); in the test on UO-31, > 100 µM (inactive); in the test with K562, 32.1 µM (inactive); in the test with UACC-257, > 100 µM (inactive). In addition, the GI50 was 61.1 µM (inactive) with HOP-92; > 100 µM (inactive) with CAKI-1; 66.2 µM (inactive) in the test on CCRF-CEM; > 100 µM (inactive) with HCT-116; greater than 100 µM with HCT-15; > 100 µM (inactive) in the test on ACHN.
On to `O=C(O)c1ccc(/C=N\N(CCO)C2=NCCN2)cc1`, for which the GI50 in the test on SF-539, in the test with Hs-578T, with RXF 393, in the test with HCC 2998, in the test with DU-145 and in the test on MCF7 was > 100 µM (inactive) throughout. For the same compound, the GI50 with BT-549, with PC-3, in the test with UO-31, in the test with K562, with T47D and in the test with HOP-92 was > 100 µM (inactive) throughout. Also, the GI50 is > 100 µM (inactive) in the test with CCRF-CEM, > 100 µM (inactive) in the test on HCT-116, greater than 100 µM in the test with HCT-15 and > 100 µM (inactive) in the test with ACHN.
In the case of `COc1ccccc1/C=C1\SC(=S)N(/C=C2\C(=O)Oc3ccccc3C2=O)C1=O`, the GI50 in the test on SF-539 was 29 µM (inactive); in the test on Hs-578T, 33.5 µM (inactive); in the test on DU-145, 33.3 µM (inactive); in the test on MCF7, 35.5 µM (inactive); in the test on BT-549, 21.1 µM (inactive); with NCI/ADR-RES it was 29.3 µM (inactive). The GI50 is 38.5 µM (inactive) in the test on PC-3; 23.2 µM (inactive) in the test with UO-31; 36.6 µM (inactive) in the test with K562; 22.9 µM (inactive) in the test on UACC-257; 18.4 µM (inactive) in the test with HOP-92; 0.458 µM (active) in the test on CAKI-1. Further, the GI50 with CCRF-CEM is 36.2 µM (inactive); in the test on HCT-116, 34.4 µM (inactive); in the test on HCT-15, 28.1 µM; with ACHN, 47.5 µM (inactive).
With `C/C(=C1/N=C(c2ccccc2)OC1=O)c1ccc(C)cc1`, the GI50 in the test with SF-539, in the test with Hs-578T, with RXF 393, with HCC 2998, in the test with DU-145 and in the test on MCF7 was > 100 µM (inactive) throughout. The GI50 with BT-549, with PC-3, in the test on A498, in the test on K562, with UACC-257 and in the test on T47D was > 100 µM (inactive) throughout. Further, the GI50 with HOP-92 was > 100 µM (inactive); with CAKI-1, > 100 µM (inactive); with CCRF-CEM, > 100 µM (inactive); in the test with HCT-116 it was > 100 µM (inactive); with HCT-15, greater than 100 µM; in the test with ACHN, > 100 µM (inactive).
Turning to `COC(=O)C(=O)C(C(=O)C(=O)Nc1nc2ccc(C)cc2s1)c1nc2ccc([N+](=O)[O-])cc2nc1O` (configuration not stated), the GI50 with SF-539 was > 100 µM (inactive); in the test with Hs-578T, 93.1 µM (inactive); in the test on RXF 393, > 100 µM (inactive); with HCC 2998 it was > 100 µM (inactive); with MCF7 it was > 100 µM (inactive); with BT-549 it was > 100 µM (inactive). Besides, the GI50 in the test on NCI/ADR-RES is > 100 µM (inactive); in the test on PC-3 it was > 100 µM (inactive); in the test with A498, > 100 µM (inactive); in the test with UO-31, 58.5 µM (inactive); in the test with K562 it was > 100 µM (inactive); in the test with UACC-257, > 100 µM (inactive). For the same compound, the GI50 was > 100 µM (inactive) in the test on T47D; 65.2 µM (inactive) in the test with HOP-92; > 100 µM (inactive) in the test on CAKI-1; > 100 µM (inactive) with CCRF-CEM; > 100 µM (inactive) in the test on HCT-116; greater than 100 µM with HCT-15. Also, the GI50 in the test on ACHN is > 100 µM (inactive).
For `COC(=O)CCC(NC(=O)C(C)NC(=O)COC1C(O)C(OC(=O)CCNc2c3ccccc3nc3cccc([N+](=O)[O-])c23)OC(OCc2ccccc2)C1NC(C)=O)C(N)=O` (configuration not stated), the GI50 in the test on SF-539 is > 10 µM (inactive); in the test with Hs-578T it was > 10 µM (inactive); in the test with RXF 393, 3.05 µM (inactive); in the test on HCC 2998, 2.76 µM (inactive); in the test on DU-145, 2.6 µM (inactive); with MCF7, 2.28 µM (inactive). For the same compound, the GI50 is > 10 µM (inactive) in the test on BT-549; > 10 µM (inactive) with PC-3; > 10 µM (inactive) in the test on A498; > 10 µM (inactive) in the test on UO-31; 1.91 µM (inactive) with K562; > 10 µM (inactive) with UACC-257. Further, the GI50 in the test on T47D is > 10 µM (inactive); in the test on HOP-92 it was 4.43 µM (inactive); in the test on CCRF-CEM, > 10 µM (inactive); with HCT-116 it was 1.64 µM (inactive); in the test with HCT-15 it was 3.21 µM; with ACHN, 3.61 µM (inactive).
Consider `C=C1CC=CC(C)(C)C1C/C=C(\C)C(O)CBr` (configuration not stated), for which the GI50 with SF-539 was 29.9 µM (inactive); with Hs-578T, > 100 µM (inactive); in the test on RXF 393 it was 26.7 µM (inactive); with HCC 2998, 87.9 µM (inactive); in the test on DU-145, 45.4 µM (inactive); in the test on MCF7, 36.2 µM (inactive). Further, the GI50 with BT-549 is 97.3 µM (inactive); with NCI/ADR-RES it was 19.2 µM (inactive); in the test on PC-3, 47.6 µM (inactive); in the test on A498, > 100 µM (inactive); in the test on UO-31, 35.7 µM (inactive); in the test on K562, 67.8 µM (inactive). The GI50 was 54.7 µM (inactive) with UACC-257; 30.9 µM (inactive) in the test on HOP-92; 23.2 µM (inactive) with CAKI-1; 47.8 µM (inactive) with CCRF-CEM; 18.7 µM (inactive) in the test on HCT-116; 51.1 µM in the test on HCT-15. Further, in the test on ACHN, the GI50 was 53.7 µM (inactive).
Regarding `COC(=O)C(Cc1c[nH]c2ccccc12)NC(=O)C(Cc1c[nH]c2ccccc12)NC(=O)C(Cc1c[nH]c2ccccc12)NC(=O)OC(C)(C)C` (stereo not drawn) (Boc-Trp-Trp-Trp-OMe; configuration not given here), the GI50 is 17.7 µM (inactive) in the test on Hs-578T; 8.93 µM (inactive) in the test with RXF 393; 18.6 µM (inactive) in the test on HCC 2998; > 10 µM (inactive) in the test with MCF7; 18.1 µM (inactive) in the test with BT-549; 15.9 µM (inactive) in the test on PC-3. In addition, the GI50 is 53.5 µM (inactive) with A498; 24.3 µM (inactive) in the test with UO-31; 27 µM (inactive) in the test with K562; 32.7 µM (inactive) in the test on UACC-257; 4.67 µM (inactive) in the test with T47D; 13.2 µM (inactive) with HOP-92. Also, the GI50 with HCT-116 was 16.2 µM (inactive); with HCT-15, 19.5 µM; in the test on ACHN it was 18.1 µM (inactive).
For the compound `COC(=O)C1(O)c2ccccc2N=C2C(=O)c3ccccc3N21` (configuration not stated) [METHYLISATOID], the GI50 in the test with SF-539, in the test on Hs-578T, in the test with RXF 393, in the test with HCC 2998, with DU-145 and in the test on MCF7 was > 100 µM (inactive) each time. Also, the GI50 was > 100 µM (inactive) with BT-549; > 100 µM (inactive) in the test on NCI/ADR-RES; 36.6 µM (inactive) in the test on PC-3; > 100 µM (inactive) in the test with A498; > 100 µM (inactive) in the test on UO-31; > 100 µM (inactive) with K562. Also, the GI50 is 23.8 µM (inactive) with UACC-257; > 100 µM (inactive) with HOP-92; > 100 µM (inactive) in the test on CAKI-1; > 100 µM (inactive) in the test on CCRF-CEM; > 100 µM (inactive) with HCT-116; greater than 100 µM in the test on HCT-15. Further, the GI50 in the test with ACHN was > 100 µM (inactive).
